Key:
[1] = Triplet-triplet transient absorption / photoacoustic calorimetry; format: physicochemical
Experimental: The triplet-triplet transient absorption was recorded in an Applied Photophysics LKS.60 laser flash photolysis spectrometer, with a Hewlett-Packard Infinium Oscilloscope and a Spectra-Physics Quanta-Ray GCR-130 Nd:YAG laser as excitation source. The pulse excitation was set at 355 nm.
The thermal energy released after electronic excitation was measured by time-resolved photoacoustic calorimetry using a front-face irradiation photoacoustic cell and a EKSPLA OPO model PG-122 pumped by an EKSPLA Nd:YAG. The signal detection was made using a 2.25 MHz Panametrics transducer. The excitation was at 690 nm and azulene was used as photoacoustic calorimetry reference.
This is indicative of negligible aggregation between the molecules, which exist mostly as monomers at these concentrations in the solvents studied. Table 1 presents the infrared molar absorption coefficient (εmax) and wavelength maximum in ethanol of a typical carboxamide halogenated bacteriochlorin derivative of Formula (I). The same table also presents triplet lifetimes (τT) in air and N2 saturated solutions, fluorescence lifetime (τS), the quantum yields of fluorescence (ΦF), triplet state formation (ΦT), and singlet oxygen generation (ΦΔ) in ethanol, and photodegradation quantum yield (Φpd) in methanol:PBS (3:2). Triplet decays were clearly mono-exponential and in air-saturated ethanol the triplet lifetimes were in the range of 200 to 300 nanoseconds. Such values are consistent with diffusion limited energy transfer from the triplet state of the photosensitizer to molecular oxygen through a charge-transfer interaction (8). The absorption intensity of the test compounds in the photobleaching studies followed a mono-exponential decrease as a function of the illumination time.

[2] = system: A549 (human lung adenocarcinoma) cell line; assay: In vitro phototoxicity / dark toxicity towards A549 cells; format: cell-based
Experimental: (§1) Phototoxicity towards cancer cell lines was evaluated in vitro using A549 (human lung adenocarcinoma) and CT26 (mouse colon adenocarcinoma) cell lines. The cells were cultured in Dulbecco's modified Eagles's medium (DMEM) supplemented with 10% heat-inactivated fetal bovine serum and 1% penicillin. Cells were plated at a density of 20,000/well and 15,000/well respectively, in flat-bottom 96-well plates. On the following day, diluted solutions of the test compound were prepared (1 mM stock) and added to the cells for 30-min incubation. […] The wells were washed two times with PBS and irradiated after 30-min of incubation using the LED light described above. Light dose was 1 J/cm^2. The medium was replaced with fresh one after irradiation and the plates were incubated for 24 h, at which time the cellular viability was assessed by resazurin method using a microplate spectrophotometer (Synergy HT Biotek).
(§2) This example describes the evaluation of in vitro phototoxicity of a carboxamide bacteriochlorin with formula IX after light irradiation, and their potential for PDT of cancer. The formulation employed was the same as that of Example 4. […] The phototoxicity was measured according to the description in the Materials and Methods section. The phototoxicity of the test compound was assessed in terms of the percentage of survival of the cells for various concentrations of the test compound incubated for 30 min, followed by washings with PBS, addition of the culture medium and illumination with a light dose of 1 J/cm^2.

[3] = system: CT26 (mouse colon adenocarcinoma) cell line; assay: In vitro phototoxicity / dark toxicity towards CT26 cells; format: cell-based
Experimental: as §1, §2

[4] = Skin permeation: depth by confocal fluorescence microscopy; format: in vitro ADME, pig; settings: in 90 minutes, topical formulation
Experimental: Skin permeation was evaluated using a topical formulation containing benzyl alcohol (23%), Kolliphor EL (17%), Transcutol (50%) and water (10%). The photosensitizer added to this formulation corresponded to 1.85% of the mass before its addition, and the gelling agent (Aerosil 200) added corresponded to 5% of the mass before its addition. The photosensitizer was first dissolved in Transcutol and exposed to 3 min of vortex and 5 min of ultrasounds. A mixture of benzyl alcohol and Kolliphor EL was then added. Immediately after, it was mixed in an IKA MIXER at 200 rpm for 5 min and water was added drop-by-drop for 10 min. Finally, the gelling agent, Aerosil 200, was mixed in and the microemulsion gel was obtained. Skin permeation studies were performed in pig skin using samples collected from 5 months old pigs. The hair was removed as well as the underlying fatty layer, before the permeation studies.
This example describes the permeation of carboxamide bacteriochlorin with formula IX in pig skin. The topical formulation and the animal model were described in the Materials and Methods section. The permeation was assessed both in terms of the amount of photosensitizer in the skin after designated times of contact between the topical formulation and the skin (incubation time) and in terms of the depth of the permeation in the skin. […]

[5] = 30 min incubation, irradiated with 1 J/cm^2

With `CNC(=O)c1c2nc(c(-c3c(F)cccc3F)c3ccc(cc4nc(c(-c5c(F)cccc5F)c5ccc1[nH]5)CC4)[nH]3)CC2` [formula IX, 5-methylcarboxamide-10,20-bis-(2,6-difluorophenyl)bacteriochlorin] the “τT (N2) triplet lifetime” value ([1]; N2-saturated ethanol) was 71 ± 5 μs, the “τT (air) triplet lifetime” value ([1]; air-saturated ethanol) was 210 ns and the “ΦT triplet state formation quantum yield” value ([1]; in ethanol) was 0.45. The IC50 [2, 5] was 2.5 nM, the “photosensitizer concentration at which nearly all cells are killed” value ([2]; A549, 30 min incubation, 1 J/cm^2 (FIG. 6)) was 50 nM and the “concentration with no signs of toxicity in the dark” value ([2]; A549, incubation in the dark for 30 min) was “up to 40 μM”. The IC50 [3, 5] was 5.8 nM, the “photosensitizer concentration at which nearly all cells are killed” value ([3]; CT26, 30 min incubation, 1 J/cm^2 (FIG. 6)) was 50 nM and the “concentration with no signs of toxicity in the dark” value ([3]; CT26, incubation in the dark for 30 min) was “up to 40 μM”. For the same compound, the “depth of penetration in the skin” value [4] was 40 μm.
